Experimental data from the NIST ThermoML archive (doi:10.1021/je700035m).
Numbers after ± are expanded uncertainties.

Assays:
[1] = Crystal; DTA
[2] = Molar enthalpy of transition or fusion; conditions: Crystal; DSC
[3] = molar enthalpy of vaporization or sublimation; conditions: 298.15 K, vacuum sublimation/vaporization calorimetry

Compound	Normal melting temperature [1] [°C]	Molar enthalpy of transition or fusion [2] [kJ/mol]	molar enthalpy ([3]; Crystal) [kJ/mol]	molar enthalpy ([3]; Liquid) [kJ/mol]
O=[N+]([O-])c1ccc2c(c1)OCO2 [1,2-(methylenedioxy)-4-nitrobenzene]	147.01 ± 0.39	28.2 ± 1.2	97.4 ± 4.3	–
Cc1ccc2c(c1)OCO2 [5-methyl-1,3-benzodioxole]	–	–	–	54.9 ± 2.3
CC(=O)c1ccc2c(c1)OCO2 [5-oxoethyl-1,3-benzodioxole]	85.72 ± 0.39	26.2 ± 0.59	104 ± 4.3	–
N#Cc1ccc2c(c1)OCO2 [3,4-methylenedioxybenzonitrile]	93.11 ± 0.39	20.8 ± 0.5	90.9 ± 1.8	–
